Measurements: DBAASP
Converted amounts (≈) assume the structure as drawn.

What was measured:
Assay in all cases: ≥ marks a high value that may be exact or a test limit, other limits are often not marked, values filed in µg/mL are converted to µM
Alternaria alternata = test system: Alternaria alternata
Botrytis cinerea = test system: Botrytis cinerea
Cladosporium herbarum = test system: Cladosporium herbarum
[1] = test system: Clavibacter michiganensis subsp. michiganensis DSM 46294
Fusarium solani = test system: Fusarium solani
[2] = test system: Pectobacterium carotovorum subsp. carotovorum DSM 30168
[3] = test system: Pseudomonas corrugata DSM 7228
[4] = test system: Pseudomonas syringae pv. syringae DSM 10604
[5] = test system: Pseudomonas syringae pv. tomato DC3000
[6] = test system: Xanthomonas vesicatoria DSM 50861
Bacillus subtilis = test system: Bacillus subtilis
Candida albicans SC5314 = test system: Candida albicans SC5314
[7] = test system: Escherichia coli ATCC 25922
[8] = test system: Staphylococcus aureus ATCC 2592
[9] = test system: Staphylococcus aureus ATCC 25923
[10] = test system: Staphylococcus aureus ATCC 33591
[11] = test system: Staphylococcus epidermidis ATCC 35984
Candida glabrata 090902 = test system: Candida glabrata 090902
[12] = test system: Enterococcus faecalis 981
[13] = test system: Nocardia asteroides 201118
[14] = test system: Psychrobacter faecalis X29
[15] = test system: Pseudomonas aeruginosa ATCC 27853
[16] = test system: Bacillus subtilis KCTC 3068
[17] = test system: Enterococcus faecalis ATCC 51575
[18] = test system: Enterococcus faecalis KCCM 29212
[19] = test system: Enterococcus faecium ATCC 51559
[20] = test system: Enterococcus faecium KCCM 12118
[21] = test system: Escherichia coli KCTC 1682
[22] = test system: Pseudomonas aeruginosa KCTC 1637
[23] = test system: Salmonella typhimurium KCTC 1926
[24] = test system: Staphylococcus aureus KCCM 40510
[25] = test system: Staphylococcus aureus KCTC 1621
[26] = test system: Staphylococcus epidermidis KCTC 1917
Escherichia coli BL21AI = test system: Escherichia coli BL21AI
[27] = test system: Micrococcus luteus ATCC 10240

C[C@H](NC(=O)[C@H](Cc1cnc[nH]1)NC(=O)[C@H](CO)NC(=O)[C@@H](N)CC(=O)O)C(=O)N[C@@H](CCCCN)C(=O)N[C@@H](CCCN=C(N)N)C(=O)N[C@@H](Cc1cnc[nH]1)C(=O)N[C@@H](Cc1cnc[nH]1)C(=O)NCC(=O)N[C@H](C(=O)N[C@@H](CCCCN)C(=O)N[C@@H](CCCN=C(N)N)C(=O)N[C@@H](CCCCN)C(=O)N[C@@H](Cc1ccccc1)C(=O)N[C@@H](Cc1cnc[nH]1)C(=O)N[C@@H](CCC(=O)O)C(=O)N[C@@H](CCCCN)C(=O)N[C@@H](Cc1cnc[nH]1)C(=O)N[C@@H](Cc1cnc[nH]1)C(=O)N[C@@H](CO)C(=O)N[C@@H](Cc1cnc[nH]1)C(=O)N[C@@H](CCCN=C(N)N)C(=O)NCC(=O)N[C@H](C(=O)O)[C@@H](C)O)[C@@H](C)O [DSHAKRHHGTKRKFHEKHHSHRGT]
MIC (Alternaria alternata): 22 µM (≈ 64 µg/mL)
MIC (Botrytis cinerea): 22 µM (≈ 64 µg/mL)
MIC (Cladosporium herbarum): 22 µM (≈ 64 µg/mL)
MIC [1]: 22 µM (≈ 64 µg/mL)
MIC (Fusarium solani): 5.49 µM (≈ 16 µg/mL)
MIC [2]: 22 µM (≈ 64 µg/mL)
MIC [3]: 22 µM (≈ 64 µg/mL)
MIC [4]: 22 µM (≈ 64 µg/mL)
MIC [5]: 22 µM (≈ 64 µg/mL)
MIC [6]: 22 µM (≈ 64 µg/mL)

CC(C)[C@H](N)C(=O)N[C@@H](CCCCN)C(=O)N[C@@H](CCCN=C(N)N)C(=O)N[C@@H](Cc1c[nH]c2ccccc12)C(=O)N[C@@H](CCCCN)C(=O)N[C@@H](CCCCN)C(=O)N[C@@H](Cc1c[nH]c2ccccc12)C(=O)N[C@@H](Cc1ccccc1)C(=O)N[C@@H](CCCN=C(N)N)C(=O)N[C@@H](CCCCN)C(=O)N[C@@H](Cc1c[nH]c2ccccc12)C(=O)N[C@@H](CCCCN)C(=O)N[C@@H](CCCCN)C(=O)N[C@@H](Cc1c[nH]c2ccccc12)C(=O)N[C@H](C(N)=O)C(C)C [VKRWKKWFRKWKKWV]
MIC (Bacillus subtilis): 4.3 µM (≈ 9.41 µg/mL)
MIC (Candida albicans SC5314): 4.3 µM (≈ 9.41 µg/mL)
MIC [7]: 2.1 µM (≈ 4.6 µg/mL)
MIC [8]: 8.5 µM (≈ 18.6 µg/mL)

CC[C@H](C)[C@H](NC(=O)CN)C(=O)NCC(=O)N[C@@H](CCCCN)C(=O)N[C@@H](Cc1ccccc1)C(=O)N[C@@H](CC(C)C)C(=O)N[C@@H](CCCCN)C(=O)N[C@@H](CCCCN)C(=O)N[C@@H](C)C(=O)N[C@@H](CCCCN)C(=O)N[C@@H](CCCCN)C(=O)N[C@@H](Cc1ccccc1)C(=O)NCC(=O)N[C@@H](CCCCN)C(=O)N[C@@H](C)C(=O)N[C@@H](Cc1ccccc1)C(=O)N[C@H](C(N)=O)C(C)C [GIGKFLKKAKKFGKAFV]
MIC [9]: 17.1 µM (≈ 32 µg/mL)
MIC [10]: ≥ 48.5 µM
MIC [11]: 3.03 µM (≈ 5.65 µg/mL)

CC[C@H](C)[C@H](NC(=O)[C@H](CC(C)C)NC(=O)CNC(=O)[C@@H]1CCCN1C(=O)[C@H](CC(C)C)NC(=O)[C@@H](N)Cc1ccccc1)C(=O)N[C@@H](CCCCN)C(=O)N[C@H](C(=O)N[C@@H](C)C(=O)N[C@H](C(=O)NCC(=O)N[C@H](C(=O)NCC(=O)N[C@@H](CO)C(=O)N[C@H](C(=O)N[C@H](C(=O)N[C@@H](CC(C)C)C(=O)N[C@H]1CSSC[C@@H](C(=O)O)NC(=O)[C@H](CCCCN)NC(=O)[C@H](CCCCN)NC(=O)[C@H]([C@@H](C)O)NC(=O)[C@H]([C@@H](C)CC)NC(=O)[C@H](CCCCN)NC1=O)[C@@H](C)CC)[C@@H](C)O)C(C)C)C(C)C)C(C)C [FLPGLIKVAVGVGSTILCKITKKC]
MIC (Candida glabrata 090902): 6.3 µM (≈ 15.7 µg/mL)
MIC [12]: 3.1 µM (≈ 7.71 µg/mL)
MIC [13]: 3.1 µM (≈ 7.71 µg/mL)
MIC [14]: ≥ 50 µM
MIC [9]: 6.3 µM (≈ 15.7 µg/mL)

CC[C@H](C)[C@H](NC(=O)[C@H](CCCCN)NC(=O)[C@@H](NC(=O)[C@H](Cc1ccccc1)NC(=O)[C@H](C)NC(=O)[C@H](CCCCN)NC(=O)CNC(=O)[C@H](Cc1ccccc1)NC(=O)[C@H](CCCCN)NC(=O)[C@H](CCCCN)NC(=O)[C@H](C)N)C(C)C)C(=O)N[C@@H](CC(C)C)C(N)=O [AKKFGKAFVKIL]
MIC [15]: 33.5 µM (≈ 45.2 µg/mL)
MIC [9]: 190 µM (≈ 256 µg/mL)
MIC [10]: ≥ 94.8 µM
MIC [11]: ≥ 94.8 µM

CC[C@H](C)[C@H](NC(=O)[C@H](CS)NC(=O)[C@H](CC(C)C)NC(=O)[C@@H](N)CC(C)C)C(=O)N[C@@H](C)C(=O)N[C@@H](CC(C)C)C(=O)N[C@@H](CCCN=C(N)N)C(=O)N[C@@H](CCCCN)C(=O)N[C@@H](CCCCN)C(N)=O [LLCIALRKK]
MIC [16]: 3.78 µM (≈ 4 µg/mL)
MIC [17]: 0.946 µM (≈ 0.999 µg/mL)
MIC [18]: 0.946 µM (≈ 0.999 µg/mL)
MIC [19]: 1.89 µM (≈ 2 µg/mL)
MIC [20]: 7.57 µM (≈ 7.99 µg/mL)
MIC [21]: 3.78 µM (≈ 4 µg/mL)
MIC [22]: 7.57 µM (≈ 7.99 µg/mL)
MIC [23]: 3.78 µM (≈ 4 µg/mL)
MIC [24]: 7.57 µM (≈ 7.99 µg/mL)
MIC [25]: 7.57 µM (≈ 7.99 µg/mL)
MIC [26]: 3.78 µM (≈ 4 µg/mL)

CC[C@H](C)[C@H](NC(=O)[C@H](CCCCN)NC(=O)[C@H](CCCN=C(N)N)NC(=O)[C@H](CC(C)C)NC(=O)[C@H](C)NC(=O)[C@H](CCCCN)NC(=O)[C@H](CS)NC(=O)[C@H](CC(C)C)NC(=O)[C@@H](N)CC(C)C)C(N)=O [LLCKALRKI]
MIC [16]: 3.78 µM (≈ 4 µg/mL)
MIC [17]: 30.3 µM (≈ 32 µg/mL)
MIC [18]: 7.57 µM (≈ 7.99 µg/mL)
MIC [19]: 1.89 µM (≈ 2 µg/mL)
MIC [20]: 3.78 µM (≈ 4 µg/mL)
MIC [21]: 7.57 µM (≈ 7.99 µg/mL)
MIC [22]: 7.57 µM (≈ 7.99 µg/mL)
MIC [23]: 7.57 µM (≈ 7.99 µg/mL)
MIC [24]: 7.57 µM (≈ 7.99 µg/mL)
MIC [25]: 7.57 µM (≈ 7.99 µg/mL)
MIC [26]: 7.57 µM (≈ 7.99 µg/mL)

CC[C@H](C)[C@H](NC(=O)[C@H](CCCN=C(N)N)NC(=O)[C@H](CCCN=C(N)N)NC(=O)[C@@H]1CCCN1C(=O)[C@@H]1CCCN1C(=O)[C@H](CCCN=C(N)N)NC(=O)[C@@H]1CCCN1C(=O)[C@H](CCCN=C(N)N)NC(=O)[C@@H]1CCCN1C(=O)[C@H](CC(C)C)NC(=O)[C@H](Cc1ccc(O)cc1)NC(=O)[C@@H]1CCCN1C(=O)[C@@H]1CCCN1C(=O)[C@H](CCCCN)NC(=O)[C@H](CC(=O)O)NC(=O)[C@@H](N)C(C)C)C(=O)N[C@@H](Cc1ccc(O)cc1)C(=O)N[C@@H](CC(N)=O)C(=O)N[C@@H](CC(N)=O)C(N)=O [VDKPPYLPRPRPPRRIYNN]
MIC (Escherichia coli BL21AI): 6.81 µM (≈ 16 µg/mL)
MIC [27]: 27.2 µM (≈ 64 µg/mL)

CC[C@H](C)[C@H](NC(=O)[C@H](CCCCN)NC(=O)[C@@H]1CCCN1C(=O)[C@H](CC(C)C)NC(=O)[C@H](CC(C)C)NC(=O)[C@@H](NC(=O)[C@H](CO)NC(=O)[C@H](CC(C)C)NC(=O)[C@H](C)NC(=O)CNC(=O)[C@H](Cc1ccccc1)NC(=O)[C@H](CC(C)C)NC(=O)[C@H](CC(C)C)NC(=O)[C@@H]1CCCN1C(=O)[C@H](CC(C)C)NC(=O)[C@@H](N)Cc1ccccc1)[C@@H](C)O)C(=O)N[C@@H](Cc1ccccc1)C(N)=O [FLPLLFGALSTLLPKIF]
MIC [12]: ≥ 50 µM
MIC [13]: 12.5 µM (≈ 23.6 µg/mL)
MIC [9]: 25 µM (≈ 47.2 µg/mL)
